US9073855B2, “BCL-2 selective apoptosis-inducing agents for the treatment of cancer and immune diseases” (AbbVie Inc., priority 2008, dated 2015)

Columns and labels:
GST-Bcl-XL = GST-Bcl-XL (Homo sapiens, UniProt Q07817); assay: TR-FRET binding assay, GST-Bcl-XL with F-Bak peptide probe; details: TR-FRET Binding Affinity, GST-Bcl-XL, F-Bak peptide probe
Outline: (§1)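 Competitive TR-FRET: GST-fusion protein, fluorescent Bak peptide probe and Tb-labelled anti-GST antibody incubated with compound dilution series (starting 50 μM as 2× stock, 10% DMSO) for 3 h at RT. Excitation 340/35 nm; Ki derived via Wang's exact competitive-binding equation.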

FL5.12/Bcl-2 cells = assay: FL5.12/Bcl-2 cell viability assay under IL-3 withdrawal (CellTitre Glo); type: cell-based, murine; details: Mus musculus, IL-3 withdrawn 48 hrs, then 24 hrs with compound
Text: FL5.12 is an IL-3 dependent prolymphocytic murine cell line that undergoes apoptosis upon IL-3 withdrawal as a result of the upregulation of pro-apoptotic Bcl-2 proteins such as Bim and Puma. Stable overexpression of anti-apoptotic Bcl-2 protein (FL5.12/Bcl-2) protects against apoptosis induced by IL-3 withdrawal by sequestration of Bim and Puma. […] The ability of compounds to kill FL5.12/Bcl-2 cells upon IL-3 withdrawal is a direct measure of the compounds' ability to inhibit anti-apoptotic Bcl-2 protein function.
Wild type FL5.12/Bcl-2 overexpressing stable transfectants were cultured in RPMI-1640 supplemented with 2 mM L-glutamine, 10% FBS, 1 mM sodium pyruvate, 2 mM HEPES, 1% penicillin/streptomycin (Invitrogen), 57 μM β-ME, and 10% WEHI-3B conditioned medium (source of IL-3) and maintained at 37° C. containing 5% CO2. 1×10^6 cells/ml were washed 1×PBS and resuspended in medium not supplemented with 10% WEHI-3B for 48 hrs prior to cytotoxicity assays. Cells were then treated for an additional 24 hrs in the presence of various concentrations of the indicated compounds. Cell viability was assessed by CellTitre Glo assay (Promega Corp.) according to the manufacturer's recommendations.

GST-Bcl-2 = GST-Bcl-2 (Homo sapiens, UniProt P10415); assay: TR-FRET binding assay, GST-Bcl-2 with F-Bak peptide probe; details: TR-FRET Binding Affinity, GST-Bcl-2, F-Bak peptide probe
Outline: as §1

GST-Bcl-2, sequence (P10415 whole entry): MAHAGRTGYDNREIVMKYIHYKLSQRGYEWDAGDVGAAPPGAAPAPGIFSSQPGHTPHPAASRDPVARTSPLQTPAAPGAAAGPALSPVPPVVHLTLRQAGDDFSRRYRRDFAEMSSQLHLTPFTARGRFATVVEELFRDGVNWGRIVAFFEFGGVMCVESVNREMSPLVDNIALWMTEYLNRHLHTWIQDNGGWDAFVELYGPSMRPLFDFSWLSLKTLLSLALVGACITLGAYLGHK
GST-Bcl-XL, sequence (Q07817 whole entry, the tested form may be a part): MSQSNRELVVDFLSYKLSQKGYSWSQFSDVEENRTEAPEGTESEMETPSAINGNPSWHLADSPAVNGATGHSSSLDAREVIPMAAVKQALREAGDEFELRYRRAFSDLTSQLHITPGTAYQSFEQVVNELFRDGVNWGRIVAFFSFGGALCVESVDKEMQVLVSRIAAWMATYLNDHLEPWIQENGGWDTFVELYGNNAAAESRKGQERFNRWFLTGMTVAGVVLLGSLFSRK

| Structure (SMILES) | Ki (GST-Bcl-XL) [nM] | EC50 (FL5.12/Bcl-2 cells) [nM] | Ki (GST-Bcl-2) [nM] |
| --- | --- | --- | --- |
| CN1CCN(Nc2ccc(S(=O)(=O)NC(=O)c3ccc(N4CCN(CC5=C(c6ccc(Cl)cc6)CC(C)(C)CC5)CC4)cc3Oc3cccc4[nH]ccc34)cc2[N+](=O)[O-])CC1 [Example 190, 4-(4-{[2-(4-chlorophenyl)-4,4-dimethylcyclohex-1-en-1-yl]methyl}piperazin-1-yl)-2-(1H-indol-4-yloxy)-N-({4-[(4-methylpiperazin-1-yl)amino]-3-nitrophenyl}sulfonyl)benzamide] | 97.1 | 24.2 | 0.512 |
| CC1(C)CCC(CN2CCN(c3ccc(C(=O)NS(=O)(=O)c4ccc(NC5CCN(CCCC(F)(F)F)CC5)c([N+](=O)[O-])c4)c(Oc4ccc5[nH]ccc5c4)c3)CC2)=C(c2ccc(Cl)cc2)C1 [Example 216, 4-(4-{[2-(4-chlorophenyl)-4,4-dimethylcyclohex-1-en-1-yl]methyl}piperazin-1-yl)-2-(1H-indol-5-yloxy)-N-[(3-nitro-4-{[1-(4,4,4-trifluorobutyl)piperidin-4-yl]amino}phenyl)sulfonyl]benzamide] | > 660 | 39.8 | 0.615 |
| COCCN1CCC(Nc2ccc(S(=O)(=O)NC(=O)c3ccc(N4CCN(CC5=C(c6ccc(Cl)cc6)CC(C)(C)CC5)CC4)cc3Oc3ccc4[nH]ccc4c3)cc2[N+](=O)[O-])CC1 [Example 189, 4-(4-{[2-(4-chlorophenyl)-4,4-dimethylcyclohex-1-en-1-yl]methyl}piperazin-1-yl)-2-(1H-indol-5-yloxy)-N-[(4-{[1-(2-methoxyethyl)piperidin-4-yl]amino}-3-nitrophenyl)sulfonyl]benzamide] | 51.7 | 14.9 | 0.144 |
| CC1(C)CCC(CN2CCN(c3ccc(C(=O)NS(=O)(=O)c4ccc(NCCOC(F)(F)F)c([N+](=O)[O-])c4)c(Oc4cccc5[nH]ccc45)c3)CC2)=C(c2ccc(Cl)cc2)C1 [Example 292, 4-(4-{[2-(4-chlorophenyl)-4,4-dimethylcyclohex-1-en-1-yl]methyl}piperazin-1-yl)-2-(1H-indol-4-yloxy)-N-[(3-nitro-4-{[2-(trifluoromethoxy)ethyl]amino}phenyl)sulfonyl]benzamide] | > 660 | 69.2 | 0.598 |
| CC1(C)CCC(CN2CCN(c3ccc(C(=O)NS(=O)(=O)c4ccc(NCCCN5CCS(=O)(=O)CC5)c([N+](=O)[O-])c4)c(Oc4cccc5[nH]ccc45)c3)CC2)=C(c2ccc(Cl)cc2)C1 [Example 295, 4-(4-{[2-(4-chlorophenyl)-4,4-dimethylcyclohex-1-en-1-yl]methyl}piperazin-1-yl)-N-[(4-{[3-(1,1-dioxidothiomorpholin-4-yl)propyl]amino}-3-nitrophenyl)sulfonyl]-2-(1H-indol-4-yloxy)benzamide] | 110 | 46.3 | 0.183 |
| CC1(C)CCC(CN2CCN(c3ccc(C(=O)NS(=O)(=O)c4ccc(NCC5CCOCC5)c([N+](=O)[O-])c4)c(Oc4cccc5[nH]cnc45)c3)CC2)=C(c2ccc(Cl)cc2)C1 [Example 403, 2-(1H-benzimidazol-4-yloxy)-4-(4-{[2-(4-chlorophenyl)-4,4-dimethylcyclohex-1-en-1-yl]methyl}piperazin-1-yl)-N-({3-nitro-4-[(tetrahydro-2H-pyran-4-ylmethyl)amino]phenyl}sulfonyl)benzamide] | 24.3 | 2.92 | 0.003 |
| CC1(C)CCC(CN2CCN(c3ccc(C(=O)NS(=O)(=O)c4cnc(NCC5CCOCC5)c(C#N)c4)c(Oc4ccc5[nH]ccc5c4)c3)CC2)=C(c2ccc(Cl)cc2)C1 [Example 352, 4-(4-{[2-(4-chlorophenyl)-4,4-dimethylcyclohex-1-en-1-yl]methyl}piperazin-1-yl)-N-({5-cyano-6-[(tetrahydro-2H-pyran-4-ylmethyl)amino]pyridin-3-yl}sulfonyl)-2-(1H-indol-5-yloxy)benzamide] | > 660 | 156 | 6.82 |
| CC1(C)CCC(CN2CCN(c3ccc(C(=O)NS(=O)(=O)c4ccc(OC[C@H]5COCCO5)c([N+](=O)[O-])c4)c(Oc4ccc5[nH]ccc5c4)c3)CC2)=C(c2ccc(Cl)cc2)C1 [Example 346, 4-(4-{[2-(4-chlorophenyl)-4,4-dimethylcyclohex-1-en-1-yl]methyl}piperazin-1-yl)-N-({4-[(2R)-1,4-dioxan-2-ylmethoxy]-3-nitrophenyl}sulfonyl)-2-(1H-indol-5-yloxy)benzamide] | 204 | 17.5 | 0.018 |
| CC1(C)CCC(CN2CCN(c3ccc(C(=O)NS(=O)(=O)c4ccc(NCC5CCOCC5)c([N+](=O)[O-])c4)c(Oc4cccc5[nH]ncc45)c3)CC2)=C(c2ccc(Cl)cc2)C1 [Example 400, 4-(4-{[2-(4-chlorophenyl)-4,4-dimethylcyclohex-1-en-1-yl]methyl}piperazin-1-yl)-2-(1H-indazol-4-yloxy)-N-({3-nitro-4-[(tetrahydro-2H-pyran-4-ylmethyl)amino]phenyl}sulfonyl)benzamide] | 36.4 | 8.47 | < 0.01 |
| CN1CCC(Nc2ccc(S(=O)(=O)NC(=O)c3ccc(N4CCN(Cc5cc(OCCO)ccc5-c5ccc(Cl)cc5)CC4)cc3Oc3cccc4[nH]ccc34)cc2[N+](=O)[O-])CC1 [Example 221, 4-(4-{[4′-chloro-4-(2-hydroxyethoxy)-1,1′-biphenyl-2-yl]methyl}piperazin-1-yl)-2-(1H-indol-4-yloxy)-N-({4-[(1-methylpiperidin-4-yl)amino]-3-nitrophenyl}sulfonyl)benzamide] | 170 | 149 | 0.057 |
| CC1(C)CCC(CN2CCN(c3ccc(C(=O)NS(=O)(=O)c4ccc(NCC5CCCCC5)c([N+](=O)[O-])c4)c(Oc4ccc5[nH]ccc5c4)c3)CC2)=C(c2ccc(Cl)cc2)C1 [Example 259, 4-(4-{[2-(4-chlorophenyl)-4,4-dimethylcyclohex-1-en-1-yl]methyl}piperazin-1-yl)-N-({4-[(cyclohexylmethyl)amino]-3-nitrophenyl}sulfonyl)-2-(1H-indol-5-yloxy)benzamide] | > 660 | > 500 | 1.99 |
| CC1(C)CCC(CN2CCN(c3ccc(C(=O)NS(=O)(=O)c4ccc(NCC5CCS(=O)(=O)CC5)c([N+](=O)[O-])c4)c(Oc4cccc5[nH]ccc45)c3)CC2)=C(c2ccc(Cl)cc2)C1 [Example 301, 4-(4-{[2-(4-chlorophenyl)-4,4-dimethylcyclohex-1-en-1-yl]methyl}piperazin-1-yl)-N-[(4-{[(1,1-dioxidotetrahydro-2H-thiopyran-4-yl)methyl]amino}-3-nitrophenyl)sulfonyl]-2-(1H-indol-4-yloxy)benzamide] | > 660 | 59.5 | 0.291 |
| CC1(C)CCC(CN2CCN(c3ccc(C(=O)NS(=O)(=O)c4ccc(OCC5(F)CCOCC5)c([N+](=O)[O-])c4)c(Oc4cccc5[nH]cnc45)c3)CC2)=C(c2ccc(Cl)cc2)C1 [Example 408, 2-(1H-benzimidazol-4-yloxy)-4-(4-{[2-(4-chlorophenyl)-4,4-dimethylcyclohex-1-en-1-yl]methyl}piperazin-1-yl)-N-({4-[(4-fluorotetrahydro-2H-pyran-4-yl)methoxy]-3-nitrophenyl}sulfonyl)benzamide] | 28.1 | 2.39 | 0.002 |
| CC1(C)CCC(CN2CCN(c3ccc(C(=O)NS(=O)(=O)c4ccc(NCCN5CCNC5=O)c([N+](=O)[O-])c4)c(Oc4ccc5[nH]ccc5c4)c3)CC2)=C(c2ccc(Cl)cc2)C1 [Example 268, 4-(4-{[2-(4-chlorophenyl)-4,4-dimethylcyclohex-1-en-1-yl]methyl}piperazin-1-yl)-2-(1H-indol-5-yloxy)-N-[(3-nitro-4-{[2-(2-oxoimidazolidin-1-yl)ethyl]amino}phenyl)sulfonyl]benzamide] | 145 | 68.2 | 0.092 |
| COCCOCCSc1ccc(S(=O)(=O)NC(=O)c2ccc(N3CCN(CC4=C(c5ccc(Cl)cc5)CC(C)(C)CC4)CC3)cc2Oc2cccc3[nH]ccc23)cc1[N+](=O)[O-] [Example 381, 4-(4-{[2-(4-chlorophenyl)-4,4-dimethylcyclohex-1-en-1-yl]methyl}piperazin-1-yl)-2-(1H-indol-4-yloxy)-N-[(4-{[2-(2-methoxyethoxy)ethyl]thio}-3-nitrophenyl)sulfonyl]benzamide] | 24.2 | 71.8 | 0.054 |
| CC1(C)CCC(CN2CCN(c3ccc(C(=O)NS(=O)(=O)c4ccc(NC5CCS(=O)(=O)C5)c([N+](=O)[O-])c4)c(Oc4ccc5[nH]ccc5c4)c3)CC2)=C(c2ccc(Cl)cc2)C1 (stereo not drawn) [Example 276, 4-(4-{[2-(4-chlorophenyl)-4,4-dimethylcyclohex-1-en-1-yl]methyl}piperazin-1-yl)-N-({4-[(1,1-dioxidotetrahydrothien-3-yl)amino]-3-nitrophenyl}sulfonyl)-2-(1H-indol-5-yloxy)benzamide] | 381 | 62.2 | 0.144 |
